# Values of other authors in patent US20100105761A1, “TREATMENT OF PAIN THROUGH EXPRESSION OF OPIOID RECEPTORS” (priority 2006, published 2010).
# Read-outs that look alike come from different tables or passages of the source.
# Legend:
# μ receptor [1] = settings: in vivo
# μ receptor [2] = tested on: μ receptor
# TMJ = settings: placed into the TMJ of cats
# masseter muscle [3] = settings: human
# masseter muscle [4] = settings: rat
# TMJ area = settings: rats, dose dependent
compound,measurement,setting,value
C=CCN1CC[C@]23c4c5ccc(O)c4O[C@H]2/C(=N\N)CC[C@@]3(O)[C@H]1C5 [naloxazone],blockade of morphine-induced antinociception,μ receptor [1],selectively blocked
same,blockade of morphine-induced respiratory depression,μ receptor [1],did not block
same,blockade of the induction of morphine dependence,μ receptor [1],did not block
same,effect on binding of radioligands to the μ1-site,μ1-site,abolish the binding of radioligands
CC(=O)Oc1ccc2c3c1O[C@H]1[C@@H](OC(C)=O)C=C[C@H]4[C@@H](C2)N(C)CC[C@@]341 [heroin],antinociception in mice of the CXBX strain,μ receptor [2]; CXBX strain,potently antinociceptive
same,"antinociception in MOR-1 knockout mice, exon-1 disrupted","μ receptor [2]; MOR-1 knockout, exon-1",still produce antinociception
[Cl-].[K+] [potassium chloride],"EMG activity in the temporal, digastric and genioglossus muscles",TMJ,increase in electromyographic (EMG) activity
NCCc1c[nH]cn1 [histamine],"EMG activity in the temporal, digastric and genioglossus muscles",TMJ,increase in electromyographic (EMG) activity
C=CCN1CC[C@]23c4c5ccc(O)c4O[C@H]2/C(=N/N=C2\CC[C@@]4(O)[C@H]6Cc7ccc(O)c8c7[C@@]4(CCN6CC=C)[C@H]2O8)CC[C@@]3(O)[C@H]1C5 [naloxonazine],effect on binding of radioligands to the μ1-site,μ1-site,abolish the binding of radioligands
N[C@@H](CCC(=O)O)C(=O)O [glutamate],"masseter muscle activity, female versus male",masseter muscle [3],evoked higher masseter muscle activity in female than males
same,"masseter muscle activity, female versus male",masseter muscle [4],evoked higher masseter muscle activity in female than males
same,EMG activity after injection into the TMJ area,TMJ area,induced a prolonged increase in EMG activity
